Values quoted from earlier work in patent US7608286B2, “Phyto-nutraceutical synergistic composition for hyperlipedemic condition” (priority 2006, dated 2009).

Experiments:
[1] = tested on: bacterial resistance mechanism (multidrug pump); details: in the presence of 5′-MHC
[2] = tested on: rats; details: rat, in vivo
[3] = target: T1, lanosterol 14alpha -demethylase (Homo sapiens, UniProt Q16850)
T1 sequence (Q16850 1-509): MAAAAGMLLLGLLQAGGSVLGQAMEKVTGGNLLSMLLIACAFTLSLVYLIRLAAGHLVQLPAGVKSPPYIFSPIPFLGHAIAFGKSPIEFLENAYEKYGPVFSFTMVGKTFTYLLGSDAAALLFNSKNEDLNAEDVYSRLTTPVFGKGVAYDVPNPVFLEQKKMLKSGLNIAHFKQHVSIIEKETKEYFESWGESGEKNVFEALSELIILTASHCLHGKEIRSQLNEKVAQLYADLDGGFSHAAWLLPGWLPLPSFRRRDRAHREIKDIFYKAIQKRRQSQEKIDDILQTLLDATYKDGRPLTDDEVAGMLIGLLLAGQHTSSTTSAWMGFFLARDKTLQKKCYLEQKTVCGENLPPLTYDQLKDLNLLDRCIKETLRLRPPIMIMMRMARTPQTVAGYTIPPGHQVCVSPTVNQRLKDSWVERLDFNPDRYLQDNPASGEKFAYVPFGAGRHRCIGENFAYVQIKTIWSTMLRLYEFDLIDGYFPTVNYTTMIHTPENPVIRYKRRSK

[4] = tested on: participants having low blood concentrations of HDL-C; details: time-release
[5] = tested on: normolipidemic and hyperlipidemic patients with low HDL-C levels; details: low dose (1.5 g/d)
[6] = tested on: apolipoprotein E-null mice; details: evolving versus established
[7] = tested on: cultured human liver (HepG2) cells

COc1cc([C@H]2Oc3cc(-c4cc(=O)c5c(O)cc(O)cc5o4)cc(OC)c3O[C@@H]2CO)ccc1O (racemic) [5′-MHC, 5′-methoxyhydnocarpin]
accumulation of berberine in the cells [1]: strong increase

Nc1ncnc2c1ncn2C[C@@H](O)[C@@H](O)C(=O)O [Eritadenine]
S-adenosylmethionine (SAM):S-adenosylhomocysteine (SAH) ratio in the liver [2]: significantly decreased
phosphatidylcholine (PC):phosphatidylethanolamine ratio in liver microsomes [2]: significantly decreased
plasma cholesterol concentration [2]: significantly decreased

C/C(C=O)=C\CC[C@@H](C)[C@H]1CC[C@@]2(C)C3=CC[C@H]4C(C)(C)C(=O)CC[C@]4(C)C3=CC[C@]12C [ganoderal A]
cholesterol biosynthesis / lanosterol 14alpha -demethylase [3]: inhibit cholesterol biosynthesis

C/C(=C\CC[C@@H](C)[C@H]1CC[C@@]2(C)C3=CC[C@H]4C(C)(C)C(=O)CC[C@]4(C)C3=CC[C@]12C)CO [ganoderol A]
cholesterol biosynthesis / lanosterol 14alpha -demethylase [3]: inhibit cholesterol biosynthesis

C/C(=C\CC[C@@H](C)[C@H]1CC[C@@]2(C)C3=CC[C@H]4C(C)(C)[C@@H](O)CC[C@]4(C)C3=CC[C@]12C)CO [ganoderol B]
cholesterol biosynthesis / lanosterol 14alpha -demethylase [3]: inhibit cholesterol biosynthesis

O=C(O)c1cccnc1 [nicotinic acid, Nicotinic acid]
change of total cholesterol concentrations [4]: -20 mg/dL
decrease of low-density lipoprotein cholesterol levels [4]: 13%
decrease of the ratio of total cholesterol to HDL-C [4]: 25%
decrease of total cholesterol concentrations [4]: 9%
decrease of triglyceride levels [4]: 20%
mean change of HDL-C levels [4]: +6 mg/dl
mean increase of HDL-C levels [4]: 18%
average increase in HDL-C levels [5]: 20%
triglyceride levels [5]: significantly lowers

(−)-epigallocatechin gallate [EGCG]
atherosclerotic lesions [6]: differentially reduces evolving atherosclerotic lesions without influencing established atherosclerosis
cellular cholesterol concentration lowered [7]: 28%
cellular cholesterol synthesis [7]: significantly lowered
increase of LDL receptor binding activity [7]: 3 fold

ganoderic acid
cholesterol biosynthesis / lanosterol 14alpha -demethylase [3]: inhibit cholesterol biosynthesis
